Reference: the NIST ThermoML archive (doi:10.1016/j.jct.2018.02.018)

What was measured:
[1] = xn = mol fraction of the nth substance listed; details: 100 kPa, Liquid; for speed of sound: Frequency=3 MHz, Single path-length method; for mass density: Vibrating tube method
[2] = refractive index (Na D-line) (dimensionless); xn = mol fraction of the nth substance listed; details: 100 kPa, Liquid, Standard Abbe refractometry

CN(C)CCOCCO [2-(2-dimethylaminoethoxy)ethanol] + C[S+](C)[O-]
Details	mass density, [1] [kg/m3]	refractive index, [2]	speed of sound, [1] [m/s]
293.15 K, x2 = 0	954	1.442	1403.6
293.15 K, x2 = 0.0984	962	1.444	1410.5
293.15 K, x2 = 0.2001	971	1.447	1417.2
293.15 K, x2 = 0.2995	981	1.449	1423.8
293.15 K, x2 = 0.4021	992	1.452	1431
293.15 K, x2 = 0.4992	1003	1.455	1439.1
293.15 K, x2 = 0.6003	1017	1.458	1448.2
293.15 K, x2 = 0.7006	1033	1.462	1458.4
293.15 K, x2 = 0.795	1051	1.467	1470.1
293.15 K, x2 = 0.8997	1074	1.472	1485.1
293.15 K, x2 = 0.9505	1087	1.476	1494.1
303.15 K, x2 = 0	946	1.438	1369.9
303.15 K, x2 = 0.0984	954	1.44	1377.3
303.15 K, x2 = 0.2001	963	1.443	1384
303.15 K, x2 = 0.2995	972	1.445	1390.2
303.15 K, x2 = 0.4021	983	1.448	1397.7
303.15 K, x2 = 0.4992	995	1.451	1405.5
303.15 K, x2 = 0.6003	1008	1.454	1414.5
303.15 K, x2 = 0.7006	1024	1.458	1425.1
303.15 K, x2 = 0.795	1041	1.462	1436.6
303.15 K, x2 = 0.8997	1064	1.468	1451.1
303.15 K, x2 = 0.9505	1077	1.471	1460.6
313.15 K, x2 = 0	938	1.435	1336.8
313.15 K, x2 = 0.0984	946	1.437	1344.1
313.15 K, x2 = 0.2001	954	1.439	1350.8
313.15 K, x2 = 0.2995	964	1.441	1357.1
313.15 K, x2 = 0.4021	975	1.444	1364.6
313.15 K, x2 = 0.4992	986	1.447	1372.4
313.15 K, x2 = 0.6003	999	1.45	1381.3
313.15 K, x2 = 0.7006	1015	1.454	1391.4
313.15 K, x2 = 0.795	1032	1.458	1403.2
313.15 K, x2 = 0.8997	1054	1.464	1417.6
313.15 K, x2 = 0.9505	1067	1.467	1427
323.15 K, x2 = 0	930	1.431	1303.9
323.15 K, x2 = 0.0984	937	1.433	1311.2
323.15 K, x2 = 0.2001	946	1.435	1318
323.15 K, x2 = 0.2995	955	1.437	1324.2
323.15 K, x2 = 0.4021	966	1.439	1331.8
323.15 K, x2 = 0.4992	977	1.442	1339.5
323.15 K, x2 = 0.6003	991	1.446	1348.4
323.15 K, x2 = 0.7006	1006	1.45	1358.4
323.15 K, x2 = 0.795	1023	1.454	1370.1
323.15 K, x2 = 0.8997	1045	1.459	1384.4
323.15 K, x2 = 0.9505	1057	1.461	1393.6
